Assay [1] addresses T1, mTor (Homo sapiens, UniProt P42345).
T1 construct: purchased Millipore/Merck KGA of Europe (panel screening service)
The assay is described as follows: mTor kinase inhibition, % activity at 0.03 μM (kinases panel screening). It is filed as biochemical. As to conditions: 0.03 μM compound. The source says: (§1) In vitro kinase inhibition activities included Pi3k and mTor activities can be tested with Millipore/Merck KGA of Europe in their kinases panel screening. Animal antitumor activity testing can be conducted by various cancer xenograft models for a compound of formula I. […]

Assay [2] has as its system pi3K. The assay is described as follows: pi3K kinase inhibition, % activity at 0.03 μM (kinases panel screening). The class given is biochemical. Conditions: 0.03 μM compound.
Description: as §1

This is an account of results in US10730878B2, “Fused quinoline compounds as PI3K/mTOR inhibitors” (ADVENCHEN PHARMACEUTICALS, LLC, priority 2015, dated 2020).

Take “N-(5-{16-[4-(1-cyano-1-methylethyl)phenyl]-8,11,13,14,16-pentaazatetracyclo[8.6.0.0^2,^7.0^11,^1^5]-hexadeca-1(10), 2,4,6,8,12,14-heptaen-4-yl)}pyridin-2-yl)-2-(oxan-4-ylamino)acetamide”: in assay [1], the “mTor % activity @0.03 μM” value was −1%. Moreover, in assay [2], the “pi3K % activity @0.03 μM” value was 68%.
As for “N-(5-{16-[4-(1-cyano-1-methylethyl)phenyl]-8,11,13,14,16-pentaazatetracyclo[8.6.0.0^2,^7.0^11,^1^5]-hexadeca-1(10),2,4,6,8,12,14-heptaen-4-yl}pyridin-2-yl)-2-(cyclopentylamino)acetamide”, the “mTor % activity @0.03 μM” value in assay [1] is reported as −2%. In addition, in assay [2], the “pi3K % activity @0.03 μM” value came to 71%.
For `CC(C)(C)c1ccc(-n2c3c4cc(-c5cnc(N)cc5C(F)(F)F)ccc4ncc3n3cnnc23)cc1` [5-[16-(4-tert-butylphenyl)-8,11,13,14,16-pentaazatetracyclo[8.6.0.0^2,^7.0^11,^1^5]hexadeca-1(10),2,4,6,8,12,14-heptaen-4-yl]-4-(trifluoromethyl)pyridin-2-amine] the same measures were 83% and 30%.
